# Tests used:
# [1] = system: olaparib resistant patient-derived breast xenograft; test: Anti-tumor activity in olaparib resistant patient-derived breast xenograft model in nude mice; assay type: in vivo, Athymic nude mice
# Description: Example 1: Anti-Tumor Activity of Formula I Co-Crystal in Combination with the Selective PARP1 Inhibitor, AZD5305, in a Patient-Derived Breast Xenograft Model in Nude Mice
# The USP1 inhibitor employed in the examples is the co-crystal described above in paragraphs and [0143]-[0155]. This co-crystal can be prepared as described in Example 6 of Published PCT WO2022/094096. The Formula I co-crystal is a co-crystal of gentisic acid and 6-(4-cyclopropyl-6-methoxypyrimidin-5-yl)-1-(4-(1-isopropyl-4-(trifluoromethyl)-1H-imidazol-2-yl)benzyl)-1H-pyrazolo[3,4-d]pyrimidine.
# Anti-tumor activity of the USP1 inhibitor of Formula I co-crystal in combination with AZD5305 was evaluated in mice using an olaparib resistant patient-derived breast xenograft model in nude mice, as shown in FIGS. 1A through 1C. 6-9 week old female Athymic nude mice from Envigo were anesthetized, and a 20 mm^3 tumor fragment was placed subcutaneously via incision in the flank. When tumors established to a tumor volume ranging from 63 to 196 mm^3, mice were randomized into groups of 10 and were assigned into the following groups: control, Formula I (100 mg/kg), AZD5305 (10 mg/kg) or Formula I (100 mg/kg) and AZD5305 (10 mg/kg) in combination. […] Body weight and tumor volume were measured twice per week. Tumor volume was calculated as mean and standard error of the mean for each treatment group.
# [2] = system: breast xenograft tumors with resistance to AZD5305 monotherapy; test: Combination activity in mice with tumors resistant to PARP inhibitors (AZD5305 monotherapy); assay type: in vivo, Athymic nude mice; conditions: from day 49, 5 mice resistant to AZD5305 monotherapy; Formula I (100 mg/kg) and AZD5305 (10 mg/kg); FIG. 1B
# Procedure: Anti-tumor activity of the USP1 inhibitor of Formula I co-crystal in combination with AZD5305 was evaluated in mice using an olaparib resistant patient-derived breast xenograft model in nude mice, as shown in FIGS. 1A through 1C. 6-9 week old female Athymic nude mice from Envigo were anesthetized, and a 20 mm^3 tumor fragment was placed subcutaneously via incision in the flank. When tumors established to a tumor volume ranging from 63 to 196 mm^3, mice were randomized into groups of 10 and were assigned into the following groups: control, Formula I (100 mg/kg), AZD5305 (10 mg/kg) or Formula I (100 mg/kg) and AZD5305 (10 mg/kg) in combination. Compound was administered via oral gavage once daily for at least 42 days dependent upon the treatment group. Body weight and tumor volume were measured twice per week. Tumor volume was calculated as mean and standard error of the mean for each treatment group.
SMILES,"resistance to AZD5305 monotherapy ([1]; AZD5305 (10 mg/kg) monotherapy, oral once daily, day 49, 5 mice)","tumor volume after addition of Formula I, compared to remaining animals on AZD5305 monotherapy [2]","anti-tumor activity compared to equivalent doses of the single agents ([1]; Formula I (100 mg/kg) and AZD5305 (10 mg/kg), oral gavage once daily, at least 42 days, FIG. 1A)"
"CCc1cc2ncc(CN3CCN(c4ccc(C(=O)NC)nc4)CC3)cc2[nH]c1=O [AZD5305, 5-[4-[(7-ethyl-6-oxo-5H-1,5-naphthyridin-3-yl)methyl]piperazin-1-yl]-N-methylpyridine-2-carboxamide, reference compound]",demonstrated resistance,,
"COc1ncnc(C2CC2)c1-c1ncc2cnn(Cc3ccc(-c4nc(C(F)(F)F)cn4C(C)C)cc3)c2n1 [Formula I, 6-(4-cyclopropyl-6-methoxypyrimidin-5-yl)-1-(4-(1-isopropyl-4-(trifluoromethyl)-1H-imidazol-2-yl)benzyl)-1H-pyrazolo[3,4-d]pyrimidine]",,decrease in tumor volume,enhances antitumor activity of AZD5305
